Reference: patent US12473295B2, “Substituted straight chain spiro derivatives” (Janssen Pharmaceutica NV, priority 2019, dated 2025)
Read-outs that look alike come from different tables or passages of the source.

Key:
[1] = biological target: menin/MLL (terbium chelate-labeled menin, FITC-MBM1 peptide) (Homo sapiens (Human), UniProt O00255); assay: Menin/MLL homogenous time-resolved fluorescence (HTRF) assay; format: binding;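 note: IC50 from percent inhibition of HTRF signal, normalized between wells without competitor and wells with a saturating competitor that displaces FITC-MBM1 from His-tagged menin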
Sequence of menin/MLL (terbium chelate-labeled menin, FITC-MBM1 peptide) (O00255 other isoform, or with tags, fused parts or gaps): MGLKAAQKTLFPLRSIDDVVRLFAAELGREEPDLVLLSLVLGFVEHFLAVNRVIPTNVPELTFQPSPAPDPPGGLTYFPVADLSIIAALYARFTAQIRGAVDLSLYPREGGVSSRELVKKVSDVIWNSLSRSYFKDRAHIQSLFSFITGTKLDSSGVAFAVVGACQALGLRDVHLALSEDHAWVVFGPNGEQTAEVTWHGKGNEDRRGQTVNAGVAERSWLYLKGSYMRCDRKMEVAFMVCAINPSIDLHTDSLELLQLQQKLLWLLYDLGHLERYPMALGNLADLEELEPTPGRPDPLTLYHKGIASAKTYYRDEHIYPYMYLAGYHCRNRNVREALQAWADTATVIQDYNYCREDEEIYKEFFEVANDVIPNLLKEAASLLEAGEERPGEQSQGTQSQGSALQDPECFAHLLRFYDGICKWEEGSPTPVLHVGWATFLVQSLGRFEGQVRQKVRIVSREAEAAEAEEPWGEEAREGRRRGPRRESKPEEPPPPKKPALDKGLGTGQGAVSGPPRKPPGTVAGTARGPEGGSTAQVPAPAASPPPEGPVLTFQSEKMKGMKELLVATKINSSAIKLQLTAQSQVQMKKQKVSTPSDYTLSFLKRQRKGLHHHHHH

[2] = test system: MOLM14 cells; assay: Proliferation assay (spheroid growth, 8 days), MOLM14; format: cell-based, human; details: MOLM14, 8 days, read-out: spheroid assay_OneTime MOLM14 IC50;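 note: spheroid size read as confluence by live-cell imaging, compounds added at a range of concentrations with 0.3% DMSO, DMSO-treated wells = 0%, highest reference dose = low control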
[3] = test system: MEIS1 mRNA; assay: MEIS1 mRNA expression assay (Quantigene Singleplex) in MOLM14 cells; format: cell-based, human; details: 48 hours incubation;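 note: MEIS1 transcript levels read by probe hybridization and normalized to RPL28 mRNA, with IC50 fitted to fold changes across a rising compound concentration series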
[4] = biological target: hERG potassium channel (Homo sapiens (Human), UniProt Q12809); assay: Effect on membrane potassium current IKr in hERG transfected CHO cells, Protocol 1 (QPatch); format: cell-based
Sequence of hERG potassium channel (Q12809 whole entry): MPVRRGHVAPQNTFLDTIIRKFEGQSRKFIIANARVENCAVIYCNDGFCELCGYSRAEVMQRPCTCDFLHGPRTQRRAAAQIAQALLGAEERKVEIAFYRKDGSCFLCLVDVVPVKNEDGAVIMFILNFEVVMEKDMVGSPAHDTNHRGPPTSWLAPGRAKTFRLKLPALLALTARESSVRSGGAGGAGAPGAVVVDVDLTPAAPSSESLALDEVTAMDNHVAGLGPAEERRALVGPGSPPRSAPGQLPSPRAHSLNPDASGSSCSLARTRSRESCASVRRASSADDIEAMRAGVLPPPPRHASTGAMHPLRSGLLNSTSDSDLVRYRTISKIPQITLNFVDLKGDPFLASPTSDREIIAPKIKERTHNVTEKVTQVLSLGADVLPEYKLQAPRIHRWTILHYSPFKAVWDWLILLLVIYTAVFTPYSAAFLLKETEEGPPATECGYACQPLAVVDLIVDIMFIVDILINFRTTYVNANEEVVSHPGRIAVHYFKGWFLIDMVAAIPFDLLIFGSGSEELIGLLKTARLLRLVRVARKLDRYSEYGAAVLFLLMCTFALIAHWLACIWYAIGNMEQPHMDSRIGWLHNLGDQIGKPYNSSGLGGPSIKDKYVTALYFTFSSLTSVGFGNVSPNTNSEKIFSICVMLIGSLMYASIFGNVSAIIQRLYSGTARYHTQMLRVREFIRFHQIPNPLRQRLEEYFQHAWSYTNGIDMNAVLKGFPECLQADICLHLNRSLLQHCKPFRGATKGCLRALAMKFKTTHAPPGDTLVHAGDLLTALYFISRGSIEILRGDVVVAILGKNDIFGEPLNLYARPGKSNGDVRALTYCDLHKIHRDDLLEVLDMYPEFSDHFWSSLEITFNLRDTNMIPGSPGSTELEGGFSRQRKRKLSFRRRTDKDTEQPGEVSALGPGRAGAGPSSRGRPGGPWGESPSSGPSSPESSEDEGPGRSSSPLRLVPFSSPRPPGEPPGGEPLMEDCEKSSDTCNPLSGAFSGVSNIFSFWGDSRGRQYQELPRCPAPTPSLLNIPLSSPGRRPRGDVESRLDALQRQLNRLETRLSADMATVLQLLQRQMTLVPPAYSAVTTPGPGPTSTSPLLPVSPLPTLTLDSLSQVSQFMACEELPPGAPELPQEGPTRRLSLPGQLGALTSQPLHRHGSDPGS
Method: 8) Effect on the Membrane Potassium Current IKr in hERG Transfected Cell Lines
• CHO Chinese hamster ovary cell line • DMSO Dimethylsulfoxide • hERG human ether-á-go-go-related gene • IKr rapidly activating delayed-rectifier K^+ current Methods
Experiments were performed using CHO cells stably expressing the hERG potassium channel. Cells were grown at 37° C. and 5% CO2 in culture flasks in Ham's F12 Medium supplemented with 10% heat-inactivated fetal calf serum, hygromycin B (100 μg/ml) and geneticin (100 μg/ml). For use in the automated patch-clamp system QPatch (Sophion) cells were harvested to obtain cell suspension of single cells.
Solutions: The bath solution contained (in mM) 145 NaCl, 4 KCl, 10 glucose, 10 HEPES ((4-(2-hydroxyethyl)-1-piperazineethanesulfonic acid), 2 CaCl2 and 1 MgCl2 (pH 7.4 with NaOH). The pipette solution contained (in mM) 120 KCl, 10 EGTA (Ethylene glycol-bis(2-aminoethylether)-N,N,N′,N′-tetraacetic acid), 10 HEPES, 5.374 CaCl2 and 1.75 MgCl2 (pH 7.2 with KOH).
Patch-clamp experiments were performed in the voltage-clamp mode and whole-cell currents were recorded with an automated patch-clamp assay utilizing the QPatch system (Sophion). Current signals were amplified and digitized, stored and analyzed by using the QPatch assay software.
The holding potential was −80 mV. The hERG current (K^+-selective outward current) was determined as the maximal tail current at −40 mV after a 2 second depolarization to +60 mV. Pulse cycling rate was 15 s. A short pulse (90 ms) to −40 mV served as a baseline step to calculate the tail current amplitude. After establishing whole-cell configuration and a stability period, the solvent control (0.3% DMSO) was applied for 5 minutes followed by the test substance by four increasing concentrations of 3×10^−7 M, 3×10^−6 M, 10^−5 M and 3×10^−5 M. Each concentration of the test substance was applied twice. The effect of each concentration was determined after 5 min as an average current of 3 sequential voltage pulses. To determine the extent of block the residual current was compared with vehicle pre-treatment.
Concentration/response relations were calculated by non-linear least-squares fits to the individual data points. The half-maximal inhibiting concentration (IC50) was calculated by the fitting routine.

[5] = test system: KO-52 cells; assay: Proliferation assay (spheroid growth, 8 days), KO-52 control cell line; format: cell-based, human; details: read-out: spheroid assay_OneTime KO-52 IC50
Procedure, shortened: (§1)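 200 MOLM14 (MLL-AF9), 200 OCI-AML3 (NPM1c) or 300 KO-52 (MLL wildtype) cells were grown as spheroids in ultra-low attachment wells with compound, 0.3% DMSO, for 8 days at 37 °C. Confluence was imaged on day 8, normalized to DMSO and top-dose reference compound. IC50 came from a variable-slope fit constrained 0–100%.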

[6] = test system: OCI-AML3 cells; assay: Proliferation assay (spheroid growth, 8 days), OCI-AML3; format: cell-based, human; details: OCI-AML3, 8 days
Procedure, shortened: as §1

[7] = test system: iCell Cardiomyocytes2; assay: Ca2+-fluorescence assay in human pluripotent stem cell-derived cardiomyocytes (CTCM human), iCell Cardiomyocytes2; format: cell-based; parameters: key: Green: No concern; Yellow: Low concern; Red: High concern; Black: Very high concern due to arrhythmic events; details: 30 min; for Color @ 0.1 μM (hazard score): iCell Cardiomyocytes2, 0.1 μM; for Color @ 0.1 μM (hazard score) / Color @ 1 μM (hazard score): range 0.1-30 μM; for Color @ 0.3 μM (hazard score): iCell Cardiomyocytes2, 0.3 μM; for Color @ 1 μM (hazard score): iCell Cardiomyocytes2, 1 μM; for Color @ 3 μM (hazard score): iCell Cardiomyocytes2, 3 μM; for Color @ 10 μM (hazard score): iCell Cardiomyocytes2, 10 μM; for Color @ 30 μM (hazard score): iCell Cardiomyocytes2, 30 μM
Method: 7) Cardio-Electrophysiological Effects of the Testing Compounds in Synchronously Beating Human Pluripotent Stem Cell-Derived Cardiomyocytes (hSC-CMs) Using a Ca^2+-Fluorescence Assay (CTCM Human)
Compounds were tested in the 96-well plates
Compounds were tested at 0.1 μM, 0.2 μM, 0.5 μM, 1 μM, 2.5 μM and 5 μM (n=4 per dose) on Cor.4U 9-Cardiomyocytes or on iCell® Cardiomyocytes2
Alternatively, compounds were tested at 0.1 μM, 0.3 μM; 1 μM, 3 μM, 10 μM and 30 μM (n=4 per dose) mostly on iCell® Cardiomyocytes2
Dimethylsulfoxide (DMSO). The solutions of the compound in DMSO or its solvent (final concentration of 0.1% DMSO; n=8)
Preparation of Test Article and Controls
Tested compounds were dissolved in DMSO at 1000-fold the intended concentrations. A compound “mother-plate” was made, containing the test compounds and positive and negative controls at 1000-fold the final concentrations. At the experiment day, these stock solutions were diluted with Tyrode (Sigma), supplemented with 10 mM HEPES (Gibco), to 2-fold the intended concentration (in round bottom compound plates). Final DMSO concentration in test solutions and vehicle control was 0.1%.
Second line hSC derived cardiomyocyte called iCell®, Cardiomyocytes2 were purchased from FUJIFILM Cellular Dynamics (USA). The experiments with test drugs are carried out 5 to 7 days after plating the cells onto the plate to have a living, beating monolayer of hiPSC-derived cardiomyocytes. The beating monolayer in 96-well-plates are normally taken from 2 Vials of frozen iCell) Cardiomyocytes2 (≈5 million cells/vial), which will be plated onto […] 96-well plates (≈50K/well).
Before Start of Experiment
At least one hour before the start of the experiments the normal cell medium was replaced with Tyrode solution with Calcium dye (see below).
Cal 520 dye (AAT Bioquest) was dissolved in 11 ml of Tyrode supplemented with 10 mM HEPES and warmed up to 37° C. before adding to the cells.
35 μl cell culture medium was removed from each well and replaced with 35 μl of pre-warmed Cal 520 dye solution and cell plate was incubated for 45 min at 37° C./5% CO2. Cells were incubated for 5 min at 37° C.
Spontaneous electrical activity is recorded, using Cal520™ (AAT Bioquest) calcium fluorescence-dye signaling. This dye integrates the total intracellular calcium activity over the whole well. A bottle of Cal520 dye (50 μg, MW: 1103/mol) is dissolved with 50 μl DMSO as a stock solution of 0.9 mM. 50 μL of the stock solution of the dye was added to 10 ml Tryodes solution to have dye concentration of 4.5 μM. Subsequently, 35 μl of this dye solution was added into each well, to have a final dye concentration of 1.58 μM. The current dye protocol on this CTCM human assay was established recently (Ivan Kopljar et al, Journal of Pharmacological and toxicological methods 2018. 91: 80-86; Lu et al., Tox Sci 2019. 170 (2): 345-356).
Fluorescent signals (Ca^2+ transient morphology) were measured using the Functional Drug Screen System (FDSS/μCell; Hamamatsu, Japan) and the recordings were subsequently analyzed off-line, using appropriate software e.g. Notocord.
The cell plate was loaded into the FDSS/μCell for a test run: Ca^2+ transients were measured for 4 minutes to check for synchronous beating of the cardiomyocytes in each well. All 96 wells were measured simultaneously (sampling interval: 0.06 s, short exposure time: 10 ms; excitation wavelength 480 nm; emission wavelength 540 nm; FDSS/μCell warmed to 37° C.).
During the compound addition step, 100 μl of the respective double-concentrated test solutions was pipetted into each well simultaneously.
Data were analyzed off-line using appropriate software e.g. Notocord-Hem (version 4.3).
The following parameters of the Ca^2′ transient morphology were measured: • beat rate (BR) • amplitude of the Ca^2+ transient (Amp), • CTD90: Ca^2+ transient duration at 90% (time to 90% of the initial base value). […]

[8] = HTRF-30 min incubation IC50, 30 min incubation

Compound | IC50 [1, 8] | IC50 ([2]; Homo sapiens, MOLM-14, […]) | IC50 ([3]; Homo sapiens, MOLM-14, 48 h) | IC50 ([6]; Homo sapiens, OCI-AML-3, […]) | IC50 [4] | IC50 ([5]; Homo sapiens, […]) | Color @ 0.1 μM (hazard score) [7] | Color @ 0.3 μM (hazard score) [7] | Color @ 1 μM (hazard score) [7] | Color @ 3 μM (hazard score) [7] | Color @ 10 μM (hazard score) [7] | Color @ 30 μM (hazard score) [7] | other results
CCN(C(=O)c1cc(F)ccc1Oc1nncnc1N1CCC2(C1)CN([C@H](CCCN(C)C(=O)OC)C(C)C)C2)C(C)C [Compound 22, methyl (R)-(4-(6-(6-(2-(ethyl(isopropyl)carbamoyl)-4-fluorophenoxy)-1,2,4-triazin-5-yl)-2,6-diazaspiro[3.4]octan-2-yl)-5-methylhexyl)(methyl)carbamate] | 1.79 nM | 360 nM | ~760 nM | – | 20900 nM | 12800 nM | – | – | – | – | – | – | –
CCN(C(=O)c1cc(F)ccc1Oc1nncnc1N1CCC2(C1)CN(C(CCCO)C(C)C)C2)C(C)C (centres unmarked) [Compound 49, N-ethyl-5-fluoro-2-((5-(2-(6-hydroxy-2-methylhexan-3-yl)-2,6-diazaspiro[3.4]octan-6-yl)-1,2,4-triazin-6-yl)oxy)-N-isopropylbenzamide] | – | – | – | – | > 30200 nM | – | – | – | – | – | – | – | –
CCN(C(=O)c1cc(F)ccc1Oc1nncnc1N1CCC2(C1)CN([C@H](CCCN(C)CCOC)C(C)C)C2)C(C)C [Compound 70a] | – | – | – | – | – | – | Green | Green | Green | Green | Green | yellow | –
CCN(CCC[C@H](C(C)C)N1CC2(CCN(c3ncnnc3Oc3ccc(F)cc3C(=O)N(CC)C(C)C)C2)C1)CCOC [Compound 71, (R)-N-ethyl-2-((5-(2-(6-(ethyl(2-methoxyethyl)amino)-2-methylhexan-3-yl)-2,6-diazaspiro[3.4]octan-6-yl)-1,2,4-triazin-6-yl)oxy)-5-fluoro-N-isopropylbenzamide] | – | 560 nM | 380 nM | 1470 nM | > 30200 nM | 12800 nM | – | – | – | – | – | – | –
CCN(C(=O)c1cc(F)ccc1Oc1nncnc1N1CCC2(C1)CN([C@H](CCCN(C)CCO)C(C)C)C2)C(C)C [Compound 286, (R)-N-ethyl-5-fluoro-2-((5-(2-(6-((2-hydroxyethyl)(methyl)amino)-2-methylhexan-3-yl)-2,6-diazaspiro[3.4]octan-6-yl)-1,2,4-triazin-6-yl)oxy)-N-isopropylbenzamide] | – | – | – | – | – | – | Green | Green | Green | Green | Green | Green | IC50 [2]: 76 nM; IC50 [3]: 96 nM; IC50 [5]: 22900 nM; IC50 [6]: 290 nM
N-ethyl-2-((5-(2-((3*R,5*R)-6-(ethyl(methyl)amino)-5-methoxy-2-methylhexan-3-yl)-2, diazaspiro[3.4]octan-6-yl)-1,2,4-triazin-6-yl)oxy)-5-fluoro-N-isopropylbenzamide [Compound 311] | – | – | – | – | – | – | – | – | – | – | – | – | IC50 ([1]; read-out: HTRF-30 min incubation IC50, 30 min incubation): 1.01 nM; IC50 [2]: 510 nM; IC50 [3]: ~630 nM; IC50 [5]: > 15000 nM; IC50 [6]: 2880 nM

Now from value to compound, other results behind:

IC50 [1, 8] | IC50 ([2]; Homo sapiens, MOLM-14, […]) | IC50 ([3]; Homo sapiens, MOLM-14, 48 h) | IC50 ([6]; Homo sapiens, OCI-AML-3, […]) | Compound | IC50 [4] | IC50 ([5]; Homo sapiens, […]) | Color @ 0.1 μM (hazard score) [7] | Color @ 0.3 μM (hazard score) [7] | Color @ 1 μM (hazard score) [7] | Color @ 3 μM (hazard score) [7] | Color @ 10 μM (hazard score) [7] | Color @ 30 μM (hazard score) [7] | other results
0.067 nM | 130 nM | 99 nM | 470 nM | CCN(C(=O)c1cc(F)ccc1Oc1nncnc1N1CCC2(C1)CN([C@H](CCC(C)(C)N)C(C)C)C2)C(C)C (single isomer, unassigned) [Compound 30, (*R)-2-((5-(2-(6-amino-2,6-dimethylheptan-3-yl)-2,6-diazaspiro[3.4]octan-6-yl)-1,2,4-triazin-6-yl)oxy)-N-ethyl-5-fluoro-N-isopropylbenzamide] | > 30200 nM | > 15000 nM | – | – | – | – | – | – | –
0.1 nM | 58 nM | 88 nM | 280 nM | CCN(C(=O)c1cc(F)ccc1Oc1nncnc1N1CCC2(C1)CN([C@H](CCC(C)(C)N(C)C)C(C)C)C2)C(C)C (single isomer, unassigned) [Compound 32, (*R)-2-((5(2-(6-(dimethylamino)-2,6-dimethylheptan-3-yl)-2,6-diazaspiro[3.4]octan-6-yl)-1,2,4-triazin-6-yl)oxy)-N-ethyl-5-fluoro-N-isopropylbenzamide] | > 30200 nM | 12900 nM | – | – | – | – | – | – | –
– | 64 nM | – | 220 nM | CCN(C(=O)c1cc(F)ccc1Oc1nncnc1N1CCC2(C1)CN([C@H](CCCNC)C(C)C)C2)C(C)C [Compound 398, (R)-N-ethyl-5-fluoro-N-isopropyl-2-((5-(2-(2-methyl-6-(methylamino)hexan-3-yl)-2,6-diazaspiro[3.4]octan-6-yl)-1,2,4-triazin-6-yl)oxy)benzamide] | – | > 15000 nM | Green | Green | Green | Green | Green | Green | –
